Biological target: T1, Mitochondrial peptide methionine sulfoxide reductase (Bos taurus, UniProt P54149)
T1 sequence (P54149 whole entry): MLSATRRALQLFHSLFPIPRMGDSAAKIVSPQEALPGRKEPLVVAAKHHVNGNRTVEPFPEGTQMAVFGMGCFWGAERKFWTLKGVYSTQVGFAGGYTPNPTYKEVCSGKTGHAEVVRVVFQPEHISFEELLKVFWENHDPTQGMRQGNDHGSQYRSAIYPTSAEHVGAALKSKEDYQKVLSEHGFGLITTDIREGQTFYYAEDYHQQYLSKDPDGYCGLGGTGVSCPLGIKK

IC50 | SMILES
> 155 µM | CN(c1ccccc1)S(=O)(=O)c1ccc2[nH]c(O)nc2c1 [N-methyl-2-oxidanylidene-N-phenyl-1,3-dihydrobenzimidazole-5-sulfonamide]
> 155 µM | Nc1ccccc1Nc1ccc([N+](=O)[O-])cc1[N+](=O)[O-] [N~1~-(2,4-dinitrophenyl)-1,2-benzenediamine]
> 155 µM | O=C(O)c1cc(O)c2c(c1)C(=O)c1cccc(O)c1C2=O [RHEIN]
> 155 µM | N#Cc1c(-n2cccc2CN=O)sc2c1CCCC2 [SMR000009830]
> 155 µM | O=c1cnn(-c2ccccc2)c(-c2ccccc2)c1 [SMR000060054]
> 155 µM | c1ccc2c(c1)nc(-c1ccncc1)n1nnnc21 [SMR000060326]
> 155 µM | Cc1ccc(-c2csc3nc(C)n(-n4c(C)ccc4C)c(=O)c23)o1 [SMR000061692]
> 155 µM | CCOc1cc(S(=O)(=O)NC2CC2)c(OCC)cc1-n1cnnn1 [SMR000123810]
> 155 µM | Cc1cc(OC(C)C)c2c(-c3ccccc3)cc(=O)oc2c1 [SMR000141385]
> 155 µM | N#CC(C=Nc1ccccc1O)c1nc2ccccc2o1 (configuration not stated) [SMR000171441]
> 155 µM | O=C(N/N=C/c1ccc2c(c1)OCO2)c1ccc(Br)o1 [SMR000185016]
> 155 µM | Cc1ccc(NC(=O)C2CCCO2)cc1[N+](=O)[O-] (configuration not stated) [SMR000197718]
> 155 µM | Cc1ccc(NS(=O)(=O)c2ccc3c(c2)C(=O)c2ccccc2C3=O)c(C)c1 [SMR000207645]
> 155 µM | Cn1c2c(c(=O)n(C)c1=O)C(C(F)(F)F)(C(F)(F)F)NC(C1CCCCC1)=N2 [SMR000219726]
118 µM | O=C(O)Cc1sc(N=NC=CCc2ccccc2)nc1O [SMR000236709]
> 155 µM | FC(F)(F)c1ccc(/N=C/c2sc(N3CCOCC3)nc2-c2ccccc2)cc1 [SMR000260329]
> 155 µM | COc1ccc(NC(=O)COC(=O)C2CCCCC2)c([N+](=O)[O-])c1 [SMR000261453]
> 155 µM | Cc1ccc(/C=C/C(=O)Nc2nccs2)o1 [SMR000261703]
> 155 µM | COc1ccc(/C=N/N2C(=O)C3C4C=CC(C4)C3C2=O)cc1[N+](=O)[O-] (configuration not stated) [SMR000283338]

IC50 | SMILES
> 155 µM | CCOC(=O)N/N=C1/c2ccccc2-c2nc3nonc3nc21 [SMR000305141]
> 155 µM | Cc1nonc1C1CCCN1Cc1c[nH]nc1-c1ccc(-c2ccccc2)cc1 (configuration not stated) [SMR000316348]
> 155 µM | CNS(=O)(=O)c1cccc(C(=O)OCC(=O)c2cc3ccccc3o2)c1 [SMR000364126]
> 155 µM | COc1cccc2cc(-c3cc(=O)oc4ccc(O)cc34)oc12 [SMR000543646]
> 155 µM | COc1cccc2c1Oc1cc([N+](=O)[O-])cc(N(C)C(C)=O)c1C=C2 [SMR000559347]
> 155 µM | CCOc1ccc(N(C)S(=O)(=O)c2cc(-c3cc(C)no3)ccc2C)cc1 [SMR000630369]
> 155 µM | NC(=O)COc1ccc2oc(=O)cc(-c3cc4ccccc4o3)c2c1 [SMR000641652]
> 155 µM | CC(=O)COc1ccc2oc(=O)cc(-c3cc4ccccc4o3)c2c1 [SMR000641655]
> 155 µM | Cc1ccc(C)c(NC(=O)/C(C#N)=C/c2ccc[nH]2)c1 [SMR000678612]
> 155 µM | COc1ccc(Nc2ccc(C(F)(F)F)cc2[N+](=O)[O-])cn1 [SMR000688981]
> 155 µM | O=C(COC(=O)C1=NN(c2ccccc2)C(=O)CC1)Nc1ccc([N+](=O)[O-])cc1C(F)(F)F [SMR001244149]
> 155 µM | Cc1ccc(CC2(C)C(=O)Nc3ccc(OC(F)(F)F)cc32)cc1 (configuration not stated) [SMR001453901]
> 155 µM | Cc1ccccc1Nc1ncnc2n[nH]cc12 [SMR001556847]
> 155 µM | CC1(C)C2CCC(CN=C(N)CSS(=O)(=O)O)C1C2 (configuration not stated) [SMR001821892]
> 155 µM | COc1cccc(/C=N/n2c(CO)nc3ccccc32)c1OC [[1-[(E)-(2,3-dimethoxyphenyl)methylideneamino]-2-benzimidazolyl]methanol]
> 155 µM | COC(=O)CN(c1nc(C)c(Br)c(OC)n1)S(=O)(=O)c1ccccc1 [[Benzenesulfonyl-(5-bromo-4-methoxy-6-methyl-pyrimidin-2-yl)-amino]-acetic acid methyl ester]
> 155 µM | COC(=O)c1ccccc1NC(=S)NC(=O)C1CC1 [methyl 2-({[(cyclopropylcarbonyl)amino]carbothioyl}amino)benzoate]
> 155 µM | COC(=O)/C(=C1/Oc2ccc(C)cc2S1)C(F)(F)F [methyl (2E)-3,3,3-trifluoro-2-(5-methyl-1,3-benzoxathiol-2-ylidene)propanoate]
